Measured values reported in patent US20190201419A1, “COMPOUND AND METHOD FOR THE TREATMENT AND DIAGNOSIS OF NEURODEGENERATIVE CONDITIONS” (Swansea University, priority 2013, published 2019).

Legend:
Format in all cases: cell-based, mouse
[1] = test system: Nur-related factor 1 (Nurr1)/retinoid X receptor (Rxr) heterodimers; assay: DR5 element luciferase reporter assay (Nurr1/Rxr) in SN4741 neural cells; conditions: 10 μM
From the text: Luciferase Reporter Assay.

Vdr = target: T1, Vdr (Homo sapiens, UniProt P11473); assay: Vdr luciferase reporter assay in SN4741 neural cells; conditions: 10 μM
T1 sequence (P11473 1-427): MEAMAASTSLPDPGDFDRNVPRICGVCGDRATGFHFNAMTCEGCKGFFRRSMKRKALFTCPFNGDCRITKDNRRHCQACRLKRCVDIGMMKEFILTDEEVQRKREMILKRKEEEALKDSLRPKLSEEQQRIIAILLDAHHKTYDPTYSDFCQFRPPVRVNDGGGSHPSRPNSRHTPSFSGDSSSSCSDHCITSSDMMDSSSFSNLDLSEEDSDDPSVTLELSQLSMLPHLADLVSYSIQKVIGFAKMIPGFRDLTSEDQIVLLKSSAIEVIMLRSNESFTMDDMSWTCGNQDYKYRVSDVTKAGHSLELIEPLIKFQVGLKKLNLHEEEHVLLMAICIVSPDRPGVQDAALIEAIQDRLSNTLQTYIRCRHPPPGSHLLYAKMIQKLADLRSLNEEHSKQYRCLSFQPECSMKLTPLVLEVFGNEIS
Protocol: (§1) Luciferase Reporter Assay. The ability of oxysterols and their acidic metabolites to activate several nuclear receptors i.e. Lxrα and β, Fxr, Vdr, Nurr1 was tested in luciferase assays. Transient transfection studies were performed in the mouse neuronal cell line SN4741. This cell line was selected as the oxysterols and acidic metabolites tested were initially identified in CSF. Cells were plated in 24-well plates ([…] cells/well) 24 hr before transfection and transfected with 1 μg of plasmid DNA/well complexed with 2 μL of Lipofectarnine 2000 (Invitrogen), Cells were transfected with 400 ng of a Lxr-, Fxr-, Vdr- or Nurr1-responsive luciferase reporter construct, and 200 ng of Lxrα, Lxrβ, Fxr, Vdr or Nurr1. A reporter gene expressing the Renilla luciferase (pRL-TK, Promega) was co-transfected in all experiments as an internal control for normalization of transfection efficiency. After a 12 h incubation, the lipid/DNA mix was replaced with fresh 2.5% serum medium containing vehicle or appropriate ligand (10 μM), as specified in each experiment. […] Luciferase activities were assayed 24 h later using the Dual-Luciferase Reporter Assay System (Promega), following the manufacturer's protocol.

Fxr = target: T2, Fxr (Homo sapiens, UniProt Q96RI1); assay: Fxr luciferase reporter assay in SN4741 neural cells; conditions: 24 h
T2 construct: expressed in transfected cells; host or cells: SN4741 mouse neuronal cell line
T2 sequence (Q96RI1 1-486): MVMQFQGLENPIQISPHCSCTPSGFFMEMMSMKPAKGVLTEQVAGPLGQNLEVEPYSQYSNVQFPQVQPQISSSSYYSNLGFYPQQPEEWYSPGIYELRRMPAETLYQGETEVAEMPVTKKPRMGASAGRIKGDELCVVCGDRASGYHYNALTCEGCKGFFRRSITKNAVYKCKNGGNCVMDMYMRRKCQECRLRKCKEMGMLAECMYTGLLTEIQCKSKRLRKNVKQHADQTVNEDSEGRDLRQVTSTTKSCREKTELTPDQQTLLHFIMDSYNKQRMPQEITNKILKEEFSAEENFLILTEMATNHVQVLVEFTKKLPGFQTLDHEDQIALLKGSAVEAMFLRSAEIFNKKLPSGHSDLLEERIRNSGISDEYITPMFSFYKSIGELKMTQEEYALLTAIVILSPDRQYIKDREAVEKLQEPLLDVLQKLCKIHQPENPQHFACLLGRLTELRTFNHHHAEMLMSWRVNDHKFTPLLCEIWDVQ
Protocol: as §1

## CC1=C(/C=C/C(C)=C\C=C\C(C)=C\C(=O)O)C(C)(C)CCC1 [9-cis-RA, 9-cis-retinoic acid]
[1]
  DR5 (Nurr1/Rxr) luciferase reporter activation: activated this reporter

## C[C@H](CCC(=O)O)[C@H]1CC[C@H]2[C@@H]3CC[C@@H]4C[C@H](O)CC[C@]4(C)[C@H]3CC[C@]12C [LCA, lithocholic acid]
Vdr
  Vdr activation, luciferase reporter: activated a vitamin D receptor (Vdr) luciferase reporter

## C[C@H](CCC(=O)O)[C@H]1CC[C@H]2[C@@H]3CC=C4C[C@@H](O)CC[C@]4(C)[C@H]3CC[C@]12C [3βH-Δ^5-BA, 3β-hydroxychol-5-en-24-oic acid]
Fxr
  Fxr activation, luciferase reporter: also activated Fxr, but was less potent than CDCA
